In assay [1] the test system is SNAP/FLAG-hGLP1R^A316T versus ^WT. In words: GLP-1R conformational ECD opening TR-FRET assay. Particulars: serial doses, 30 min; n = 5; Fig. 8E. The format is cell-based, human. As for the experimental part: Nb37 bystander NanoBiT assays
INS-1 832/3 Glp1r-/- cells were seeded in 6-well plates and co-transfected with the following plasmids:
200 ng pSNAP/FLAG-hGLP1RWT or A316T, 500 ng Gαs (human, short isoform), 500 ng Gβ1 (human), 500 ng Gγ2 (human), 100 ng RIC8B (human, isoform 2), and either 100 ng LgBiT-CAAX (KRAS CAAX motif N-terminally fused with LgBiT) or 500 ng Endofin-LgBiT (Endofin FYVE domain C-terminally fused with LgBiT), plus 100 ng (plasma membrane assay) or 500 ng (endosomal assay) SmBiT-Nb37 [Nb37 cDNA synthesised by GenScript C- terminally fused to SmBiT with a 15 amino acid flexible linker (123) ] and adjusted for total DNA with pcDNA3.1 for the LgBiT-CAAX transfection. 24 hours after transfection, cells were exposed to NanoGlo Live Cell Reagent (Promega) with furimazine (1:20 dilution) and bioluminescence read in a Flexstation 3 plate reader for 8 min before and 30 min after stimulation by […]
AUCs were calculated for each agonist concentration and fitted to log(agonist) versus response four-parameter curves using GraphPad Prism 10.1.2, with logEC50 (potency) and Emax (efficacy) calculated for each replicate dose response curve. Baseline endosomal over plasma membrane bioluminescence ratios were also calculated.
GLP- 1R conformational ECD opening time resolved-fluorescence resonance energy transfer (TR- […]
signal serially monitored for 30 min. […]
In general terms: TR-FRET usually uses a lanthanide donor and a delayed reading to cut background.

The test system is the same in assay [2]. Kind of assay: Insulin secretion in EndoC-βH3 GLP1R^-/--enriched cells. The format is cell-based, human. Particulars: 15 mM glucose + 100 nM, 60 min; n = 4; Fig. 6C,D. As for the experimental part: Purified mouse islets used for insulin secretion assays were treated in 24-well nonadherent plates. Eight islets were used per replicate with three technical replicates per condition. For acute studies, islets were preincubated for 1 hour in KRBH buffer containing 0.1% (w/v) bovine serum albumin (BSA) (10775835001, Roche) and 3 mM glucose before incubation with 11 mM glucose ± 100 nM GLP-1RAs or the GLP-1R antagonist exendin-9 in KRBH buffer in a shaking 37°C water bath (80 rpm) for 1 hour. For overnight studies, preincubation was carried out in RPMI 1640 medium containing FBS, P/S, and 3 mM glucose, followed by treatment with medium supplemented with 11 mM glucose ± GLP-1RAs for 16 hours. […] Insulin secretion assays with the human EndoC-βH3 cell line were performed following 3 weeks of treatment with 4-hydroxytamoxifen as above, followed by transduction with pAV-SNAP/FLAG-hGLP1R^WT or ^A316T adenoviruses, with insulin secretion assessed as previously described ([54]), with the following modifications: After preincubation with 0.5 mM glucose KRBH buffer, cells were stimulated with 15 mM glucose ± exendin-4 for 60 min. Total and secreted insulin samples from islets and cells were stored at −20°C until quantification using an Insulin Ultra-Sensitive HTRF kit (#62IN2PEG, Revvity) in a PHERAstar plate reader (BMG Labtech), according to the manufacturer’s instructions.

Assay [3] shares this test system. Kind of assay: Insulin secretion in transduced primary human islets. The format is cell-based. The settings on record: 11 mM glucose + 100 nM; n = 4; Fig. 6G,H.

Turning to GLP-1(7-36)NH2, the “TR-FRET (ECD opening) in response to agonist, A316T versus WT” value in assay [1] is “significantly increased”.

Turning to exendin-4, in assay [2], the “Agonist-stimulated insulin secretory fold increases, A316T versus WT” value was “significantly reduced”. Besides, the “Agonist-induced potentiation of insulin secretion, A316T versus WT” value in assay [3] is “near-significant loss”.

Source of the values: article PMC13267291, “In vivo functional profiling and structural characterization of the human GLP1R A316T variant” (Science Advances, 2026).
